Experiments:
Format in all cases: cell-based, Mus musculus
primary white adipocytes = assay: Thermogenic gene expression; conditions: for Ucp1 expression: primary adipocytes treated with the indicated proteins 1 μg/ml for 24 hr, n = 3 (Fig. 2e)
UCP1 protein = UCP1 protein levels by western blotting in primary white and brown adipocytes; conditions: NE 100 nM, PTHrP or PTH 100 ng/ml each, 24 hr
primary adipocytes = assay: Cellular oxygen consumption rate; conditions: primary white adipocytes, NE 100 nM, PTHrP or PTH 100 ng/ml, 24 hr, n = 4
primary brown adipocytes = assay: Thermogenic gene expression; conditions: peptides 100 ng/ml for 2 hr, RT-qPCR, n = 3 (Extended Data Fig. 3d)

| Molecule | UCP1 protein levels (UCP1 protein) | O2 consumption, including basal, uncoupled and maximal respiration (primary adipocytes) | Ucp1 expression (primary white adipocytes; RT-qPCR) | also measured |
| --- | --- | --- | --- | --- |
| C=CC(=O)Nc1ccc2ncnc(Nc3ccc(OCc4cccc(F)c4)c(Cl)c3)c2c1 [AST-1306] | – | – | – | browning activity present in LLC cell-conditioned medium (primary white adipocytes; AST-1306 1 μM and LLC cell-conditioned medium for 24 hr, primary adipocytes, n = 3 (Fig. 3a)): largely unaffected; Ucp1 mRNA induction by BTC, EREG or HBEGF (primary white adipocytes; AST-1306 1 μM with BTC, EREG or HBEGF 100 ng/ml for 24 hr, primary adipocytes, n = 3 (Extended Data Fig. 3c)): completely blocked Ucp1 mRNA induction |
| NC[C@H](O)c1ccc(O)c(O)c1 [NE, norepinephrine] | increased UCP1 protein comparably | significantly raised O2 consumption | – | – |
| PTH: Synthetic parathyroid hormone 1-34 peptide, purchased from Bachem (SVSEIQLMHNLGKHLNSMERVEWLRKKLQDVHNF; Parathyroid hormone; UniProt P01270 32-65, looked up, fragment) | increased UCP1 protein comparably | significantly raised O2 consumption | – | thermogenic gene expression (primary white adipocytes; primary white adipocytes, peptides 100 ng/ml for 2 hr, RT-qPCR, n = 3 (Fig. 3b)): stimulated thermogenic gene expression; thermogenic gene expression (primary brown adipocytes): stimulated thermogenic gene expression |
| epiregulin [EREG] | – | – | induced Ucp1 expression | – |
| heparin binding-EGF (protein, UniProt Q99075 63-148, looked up) Heparin-binding EGF-like …: DLQEADLDLLRVTLSSKPQALATPNKEEHGKRKKKGKGLGKKRDPCLRKYKDFCIHGECKYVKELRAPSCICHPGYHGERCHGLSL | – | – | induced Ucp1 expression | – |
| betacellulin (protein, UniProt P35070 32-111, looked up) Betacellulin: DGNSTRSPETNGLLCGDPEENCAATTTQSKRKGHFSRCPKQYKHYCIKGRCRFVVAEQTPSCVCDEGYIGARCERVDLFY | – | – | induced Ucp1 expression | – |
